Assay results taken from patent US20260207450A1, “ANTI-DANDRUFF COMPOSITIONS” (Firmenich SA, priority 2022, published 2026).
≈ marks a conversion by molar mass, not a printed value. Each block holds one compound with its values, some of them ahead of it.

Experiments:
[1] = test system: M. restricta ATCC MYA-4611; experiment: Disc-diffusion assay, perfumery materials in Shampoo Base B, M. restricta; type: cell-based, Malassezia restricta; conditions: 0.25% perfumery material in 25% Shampoo Base B solution, 6 mm disc, 6 days
Description: (§1) The present inventors sought to investigate how whether the anti-dandruff effect of compounds and compositions could be used in shampoo formulations. For this reason, they prepared two shampoo bases. Shampoo Base A is a composition with Sodium Laureth Sulfate and cocamidopropyl betaine as the primary ingredients, while Shampoo Base B is a composition with Ammonium Lauryl Sulfate and Ammonium Laureth Sulfate as primary ingredients. Anti-Malassezia effect of perfumery materials in shampoo was determined using disc-diffusion assay, based on the method of J Mycol Infect 2018; 23: 91-98. […] Aliquots (20 μL) of each sample solution was added to each disc. Agar plates were incubated at 30° C. for 6 days. After incubation, diameters of the clear inhibition zones around the discs were measured.

[2] = test system: M. globosa ATCC MYA-4612; experiment: Disc-diffusion assay, perfumery materials in Shampoo Base B, M. globosa; type: cell-based, Malassezia globosa; conditions: 0.25% perfumery material in 25% Shampoo Base B solution, 6 mm disc, 6 days
Description: as §1

[3] = test system: M. restricta ATCC MYA-4611; experiment: Disc-diffusion assay, perfumery materials in DMSO, M. restricta; type: cell-based, Malassezia restricta; conditions: Malassezia restricta, 144 h
Procedure: (§2) Anti-Malassezia effect of perfumery materials in solvent in DMSO was determined using disc-diffusion assay, based on the method of J Mycol Infect 2018: 23: 91-98. In brief, working cultures of Malassezia strains were prepared from −80 C stock culture on mDixon agar plate (for M. furfur DSM 6170) or mLN agar plate (for M. restricta ATCC MYA-4611 and M. globosa ATCC MYA-4612), and cells were suspended in 0.9% saline, and spread onto mDixon or mLN agar surface to prepare lawn plate. Test samples solutions are prepared in DMSO to final concentrations of 0.2%, 1% or 2%. Discs (Whatman, 6 mm in diameter) were placed on inoculated agar plates with each Malassezia strains respectively, including M. furfur DSM 6170, M. restricta ATCC MYA-4611, and M. globosa ATCC MYA-4612. Aliquots (20 μL) of each sample solution was added to each disc. Agar plates were incubated at 30° C. for 3 days for M. furfur DSM 6170, and 6 days for M. restricta ATCC MYA-4611, and M. globosa ATCC MYA-4612. After incubation, diameters of the clear inhibition zones around the discs were measured. Inhibition zone greater than 6 mm are regarded as having anti-Malassezia effect.

[4] = test system: Malassezia furfur DSM 6170; experiment: MIC assay on Malassezia furfur DSM 6170 (resazurin); type: cell-based; conditions: Malassezia furfur, DSM6170; 30° C., 48 h aerobically; dilutions 29 to 10000 ppm
Procedure: The MIC assay for Malassezia furfur DSM 6170 was modified based on the method in Journal of Clinical Microbiology 2017, Vol 55: 1883-1893. In brief, working culture was prepared from stock cultures stored at −80° C. to obtain a cell suspension as the inoculum. Serial dilutions of samples, 29 to 10000 ppm, were tested to determine the MIC values for growth of Malassezia furfur DSM 6170 after at 30° C. for 48 h aerobically. Resazurin was used as growth indicator.
(§3) A total of 26 perfumery materials were examined for an inhibition effect on Malassezia furfur and Staphylococcus aureus.

[5] = test system: Staphylococcus aureus ATCC 6538; experiment: MIC assay on Staphylococcus aureus ATCC 6538; type: cell-based; conditions: Staphylococcus aureus, ATCC6538; TSB, 37° C., 24 h aerobically; dilutions 29 to 10000 ppm; read-out: MIC (ppm) S. aureus
Procedure: MIC assay for Staphylococcus aureus ATCC 6538 is based on Clinical Laboratory Standard Institute: CLSI/NCCLS M07-A8. Cell suspension of working cultures of S. aureus was prepared following the instructions of culture provider ATCC, USA.
as §3

[6] = test system: M. furfur DSM 6170; experiment: Disc-diffusion assay, (2E,6Z)-2,6-nonadienal with anti-dandruff actives in DMSO, M. furfur; type: cell-based, Malassezia furfur; conditions: 3 days
Procedure: The anti-Malassezia effect of perfumery materials in combination of anti-dandruff actives using the disk-diffusion assay, modified based on the method of J Mycol Infect 2018; 23: 91-98. working culture of M. furfur DSM 6170 was prepared from −80 C stock culture on mDixon agar plate, and cells were suspended in 0.9% saline, and spread onto mDixon agar surface to prepare lawn plates. Discs (Whatman, 6 mm in diameter) were placed on inoculated mDixon agar plates. Test sample solutions are prepared in DMSO. Aliquots (20 μL) of each sample solution was added to each disc. Agar plates were incubated at 30° C. for 3 days. After incubation, diameters of the clear inhibition zones around the discs were measured.

[7] = test system: M. restricta; experiment: Disc-diffusion assay, combinations with piroctone olamine (PO) in DMSO, M. restricta; type: cell-based, Malassezia restricta; conditions: 4 days, ratio greater than 1.0 = boosting effect
Procedure: Anti-Malassezia effect of combinations of PO and perfumery materials in solvent DMSO against M. restricta was determined using disc-diffusion assay as described above. Aliquots (20 μL) of each sample solution was added to each disc. Agar plates were incubated at 30° C. for 4 days. After incubation, diameters of the clear inhibition zones around the discs were measured. Ratio of inhibition zone diameter of each combination to that of PO only were calculated. […] Anti-Malassezia effect of combinations of PO and perfumery raw materials mixtures in solvent DMSO was determined using disc-diffusion assay, as described above. Aliquots (20 μL) of each sample solution was added to each disc. Agar plates were incubated at 30° C. for 4 days. After incubation, diameters of the clear inhibition zones around the discs were measured. Ratio of inhibition zone diameter of each combination to that of PO only were calculated.

[8] = test system: M. globosa ATCC MYA-4612; experiment: Disc-diffusion assay, perfumery materials in DMSO, M. globosa; type: cell-based, Malassezia globosa; conditions: Malassezia globosa, 144 h
Procedure: as §2

[9] = test system: M. furfur DSM 6170; experiment: Disc-diffusion assay, perfumery materials in DMSO, M. furfur; type: cell-based, Malassezia furfur; conditions: Malassezia furfur, DSM6170, 72 h
Procedure: as §2

[10] = test system: M. restricta ATCC MYA-4611; experiment: Cylinder diffusion assay, hair conditioner base with 0.35% PO and mixtures, M. restricta; type: cell-based, Malassezia restricta; conditions: conditioner containing 0.35% PO without mixture; 25% conditioner solution, 80 μL cylinder, 4 days
Procedure: A hair conditioner base was prepared. The main components included water, cetyl alcohol, MIRASIL® ADME-NP (water (and) amodimethicone (and) trideceth-6), stearyl alcohol, behentrimonium methosulfate (and) Isopropanol.
Anti-Malassezia effect of hair conditioners was determined using cylinder diffusion assay that was used for testing shampoos, as described above. In brief, working cultures of M. restricta ATCC MYA-4611 and inoculated as described in disc diffusion assay. Cylinders were placed on inoculated agar plates. Aliquots (80 μL) of each sample (25% conditioner solution) were added to each cylinder. Agar plates were incubated at 30° C. for 4 days. After incubation, diameters of the clear inhibition zones around the discs were measured.

SMILES: C=CCc1ccc(O)c(OC)c1 [2-methoxy-4-(2-propen-1-yl)phenol]
- Inhibition zone (mm) M. restricta [1]: 7.3 mm
- Inhibition zone (mm) M. globosa [2]: 8.2 mm

SMILES: CCCc1cccc(O)c1 [3-propylphenol]
- Inhibition zone (mm) M. restricta [1]: 7.7 mm
- Inhibition zone (mm) M. globosa [2]: 10.2 mm

- MIC [4]: 44 µg/mL (≈ 318 µM)
- MIC [5]: 233 µg/mL (≈ 1690 µM)
SMILES: CC/C=C\CC/C=C/C=O [(2E,6Z)-2,6-nonadienal]
- zone of inhibition at 0.2 % [3]: 7.7 mm
- zone of inhibition at 1 % [3]: > 40 mm
- zone of inhibition at 2 % [3]: > 40 mm
- Inhibition zone (mm) M. restricta [1]: 11.1 mm
- Inhibition zone (mm) M. globosa [2]: 12.8 mm
- Inhibition zone (mm) on M. furfur ([6]; Table 5, 0.75% in DMSO, 6 mm disc): 7.6 mm
- Inhibition zone (mm) on M. furfur ([6]; Table 6, 1% in DMSO): 11.4 mm
- Inhibition zone (mm) on M. furfur ([6]; Table 7, 1% in DMSO): 14.1 mm
- Ratio of inhibition zone diameter (0.2% PRM + 0.1% PO) to 0.1% PO [7]: 1.2
- Ratio of inhibition zone diameter (0.5% PRM + 0.1% PO) to 0.1% PO [7]: 3.4
- zone of inhibition at 0.2 % [8]: 12.4 mm
- zone of inhibition at 1 % [8]: > 40 mm
- zone of inhibition at 2 % [9]: 13.5 mm

SMILES: Cc1cc(CC(C)CC(C)(C)C)n(O)c(=O)c1.NCCO (stereo not drawn) [Piroctone Olamine (PO), Piroctone Olamine]
- Inhibition zone (mm) on M. furfur ([6]; Table 5, 0.19% in DMSO, 6 mm disc): 11.8 mm
- Inhibition zone diameter (mm) against M. restricta [10]: No inhibition zone

SMILES: O=C/C=C/c1ccccc1 [cinnamaldehyde, (E)-3-phenyl-2-propenal]
- zone of inhibition at 0.2 % [3]: 8.4 mm
- zone of inhibition at 1 % [3]: 34.5 mm
- zone of inhibition at 2 % [3]: 33.3 mm
- MIC [4]: 99 µg/mL (≈ 749 µM)
- MIC [5]: 293 µg/mL (≈ 2220 µM)
- Ratio of inhibition zone diameter (0.2% PRM + 0.1% PO) to 0.1% PO [7]: 1.4
- Ratio of inhibition zone diameter (0.2% PRM + 0.35% PO) to 0.35% PO [7]: 1.3
- Ratio of inhibition zone diameter (0.5% PRM + 0.1% PO) to 0.1% PO [7]: 3.4
- zone of inhibition at 1 % [8]: 17.6 mm
- zone of inhibition at 2 % [8]: 27.4 mm
- zone of inhibition at 2 % [9]: 16.5 mm

- MIC [4]: 222 µg/mL (≈ 1460 µM)
- MIC [5]: 450 µg/mL (≈ 2960 µM)
SMILES: CC(C)=CCC/C(C)=C/C=O [citral, (Z)-3,7-dimethyl-2,6-octadienal+(E)-3,7-dimethyl-2,6-octadienal]
- zone of inhibition at 0.2 % [3]: 6.2 mm
- zone of inhibition at 1 % [3]: 7.1 mm
- zone of inhibition at 2 % [3]: > 40 mm
- Ratio of inhibition zone diameter (1% PRM + 0.35% PO) to 0.35% PO [7]: 1.1
- zone of inhibition at 0.2 % [8]: 6.2 mm
- zone of inhibition at 2 % [8]: 8.7 mm
- zone of inhibition at 2 % [9]: 8.6 mm

SMILES: CC(=O)N1CCN(c2ccc(OCC3COC(Cn4ccnc4)(c4ccc(Cl)cc4Cl)O3)cc2)CC1 (stereo not drawn) [ketoconazole]
- Inhibition zone (mm) on M. furfur ([6]; Table 7, 0.1% in DMSO): 22.3 mm
- Inhibition zone (mm) on M. furfur ([6]; Table 7, 0.2% in DMSO): 24.6 mm
- Inhibition zone (mm) on M. furfur ([6]; Table 7, 0.3% in DMSO): 24.5 mm
- Inhibition zone (mm) on M. furfur ([6]; Table 7, 0.4% in DMSO): 24.9 mm
